Measured values reported in the CheMixHub viscosity set.
± gives the uncertainty stated by the source.

Test: xn = mol fraction of the nth substance listed

CCCC(=O)OCC(COC(=O)CCC)OC(=O)CCC + CCO
viscosity [mPa·s], 101.33 kPa
Conditions | x1 = 0.1 | x1 = 0.2 | x1 = 0.3 | x1 = 0.4 | x1 = 0.5 | x1 = 0.6 | x1 = 0.7 | x1 = 0.8 | x1 = 0.9
298 K | 1.59 ± 0.02 | 2.22 ± 0.03 | 2.92 ± 0.03 | 3.63 ± 0.04 | 4.38 ± 0.05 | 5.15 ± 0.06 | 5.97 ± 0.08 | 6.78 ± 0.09 | 7.71 ± 0.11
303 K | 1.44 ± 0.02 | 1.98 ± 0.02 | 2.58 ± 0.03 | 3.19 ± 0.04 | 3.81 ± 0.04 | 4.48 ± 0.05 | 5.14 ± 0.06 | 5.82 ± 0.08 | 6.58 ± 0.09
308 K | 1.31 ± 0.02 | 1.78 ± 0.02 | 2.29 ± 0.03 | 2.81 ± 0.03 | 3.35 ± 0.04 | 3.91 ± 0.05 | 4.48 ± 0.06 | 5.04 ± 0.06 | 5.67 ± 0.08
313 K | 1.21 ± 0.01 | 1.61 ± 0.02 | 2.06 ± 0.02 | 2.51 ± 0.03 | 2.97 ± 0.03 | 3.43 ± 0.04 | 3.92 ± 0.05 | 4.4 ± 0.06 | 4.92 ± 0.07

CCCCN + CCO
viscosity [mPa·s]
Conditions | 298.15 K | 303.15 K | 313.15 K
100 kPa, x2 = 0.102 | 0.514 ± 0.021 | – | –
100 kPa, x2 = 0.15 | 0.542 ± 0.022 | – | –
100 kPa, x2 = 0.295 | 0.626 ± 0.026 | – | –
100 kPa, x2 = 0.449 | 0.749 ± 0.031 | – | –
100 kPa, x2 = 0.501 | 0.791 ± 0.032 | – | –
100 kPa, x2 = 0.595 | 0.872 ± 0.036 | – | –
100 kPa, x2 = 0.68 | 0.931 ± 0.038 | – | –
100 kPa, x2 = 0.752 | 0.977 ± 0.04 | – | –
100 kPa, x2 = 0.897 | 1.051 ± 0.043 | – | –
101.33 kPa, x1 = 0.1093 | – | 0.9614 ± 0.008 | 0.7843 ± 0.0067
101.33 kPa, x1 = 0.1943 | – | 0.9273 ± 0.0077 | 0.747 ± 0.0064
101.33 kPa, x1 = 0.2825 | – | 0.8774 ± 0.0073 | 0.7048 ± 0.0061
101.33 kPa, x1 = 0.4151 | – | 0.7915 ± 0.0067 | 0.6383 ± 0.0056
101.33 kPa, x1 = 0.5136 | – | 0.7146 ± 0.0061 | 0.5888 ± 0.0052
101.33 kPa, x1 = 0.6128 | – | 0.6369 ± 0.0055 | 0.5355 ± 0.0048
101.33 kPa, x1 = 0.7066 | – | 0.5687 ± 0.005 | 0.4844 ± 0.0044
101.33 kPa, x1 = 0.8039 | – | 0.5095 ± 0.0046 | 0.4428 ± 0.0041
101.33 kPa, x1 = 0.894 | – | 0.4717 ± 0.0043 | 0.4132 ± 0.0039

Cc1ccncc1 + CCO
298.15 K, 101.33 kPa
Conditions | viscosity [mPa·s]
x2 = 0.119 | 0.878 ± 0.011
x2 = 0.2179 | 0.8832 ± 0.01
x2 = 0.3335 | 0.8963 ± 0.0096
x2 = 0.426 | 0.9084 ± 0.0092
x2 = 0.5813 | 0.9345 ± 0.0088
x2 = 0.7893 | 0.9902 ± 0.0084
x2 = 0.8494 | 1.015 ± 0.0085
x2 = 0.9031 | 1.041 ± 0.0085

O=C(O)C(Cl)(Cl)Cl + CCOC(=O)c1ccccc1
298.15 K, 101 kPa
Conditions | viscosity [mPa·s]
x1 = 0.08874 | 2.324 ± 0.061
x1 = 0.2096 | 2.93 ± 0.078
x1 = 0.3125 | 3.711 ± 0.099
x1 = 0.3982 | 4.61 ± 0.12
x1 = 0.4907 | 5.848 ± 0.16
x1 = 0.5795 | 7.068 ± 0.19
x1 = 0.6758 | 8.374 ± 0.23

CCCCN + CCOC(C)=O
303.15 K, 101 kPa
Conditions | viscosity [mPa·s]
x1 = 0.1573 | 0.4484 ± 0.0042
x1 = 0.2361 | 0.4671 ± 0.0044
x1 = 0.312 | 0.4741 ± 0.0046
x1 = 0.4217 | 0.4759 ± 0.0048
x1 = 0.5671 | 0.476 ± 0.005
x1 = 0.6505 | 0.4772 ± 0.0052
x1 = 0.7907 | 0.4779 ± 0.0055
x1 = 0.8803 | 0.4928 ± 0.0058

O=C(O)C(Cl)(Cl)Cl + CCOC(C)=O
298.15 K, 101 kPa
Conditions | viscosity [mPa·s]
x1 = 0.1118 | 0.5878 ± 0.016
x1 = 0.184 | 0.7309 ± 0.019
x1 = 0.2807 | 1.001 ± 0.026
x1 = 0.3846 | 1.449 ± 0.038
x1 = 0.4878 | 2.176 ± 0.058
x1 = 0.6142 | 3.467 ± 0.092
x1 = 0.7008 | 4.709 ± 0.13

CCCCN + CCOCCO
308.15 K, 101 kPa
Conditions | viscosity [mPa·s]
x2 = 0.0802 | 0.5335 ± 0.055
x2 = 0.2044 | 0.6473 ± 0.067
x2 = 0.3059 | 0.7671 ± 0.079
x2 = 0.4065 | 0.8896 ± 0.091
x2 = 0.5068 | 1.007 ± 0.1
x2 = 0.6065 | 1.115 ± 0.11
x2 = 0.7058 | 1.209 ± 0.12
x2 = 0.9024 | 1.376 ± 0.14

CCCCN + CO
viscosity [mPa·s]
Conditions | 298.15 K | 303.15 K | 313.15 K | 323.15 K
100 kPa, x2 = 0.1 | 0.505 ± 0.011 | – | – | –
100 kPa, x2 = 0.203 | 0.552 ± 0.012 | – | – | –
100 kPa, x2 = 0.299 | 0.599 ± 0.013 | – | – | –
100 kPa, x2 = 0.399 | 0.653 ± 0.014 | – | – | –
100 kPa, x2 = 0.501 | 0.707 ± 0.015 | – | – | –
100 kPa, x2 = 0.598 | 0.747 ± 0.016 | – | – | –
100 kPa, x2 = 0.697 | 0.761 ± 0.016 | – | – | –
100 kPa, x2 = 0.796 | 0.732 ± 0.016 | – | – | –
100 kPa, x2 = 0.9 | 0.65 ± 0.014 | – | – | –
101 kPa, x2 = 0.1159 | – | 0.47 ± 0.015 | 0.409 ± 0.014 | 0.357 ± 0.014
101 kPa, x2 = 0.2309 | – | 0.494 ± 0.015 | 0.425 ± 0.014 | 0.369 ± 0.014
101 kPa, x2 = 0.3289 | – | 0.518 ± 0.015 | 0.439 ± 0.015 | 0.377 ± 0.014
101 kPa, x2 = 0.426 | – | 0.549 ± 0.016 | 0.458 ± 0.015 | 0.386 ± 0.014
101 kPa, x2 = 0.5325 | – | 0.584 ± 0.016 | 0.482 ± 0.015 | 0.397 ± 0.014
101 kPa, x2 = 0.6186 | – | 0.607 ± 0.016 | 0.498 ± 0.015 | 0.405 ± 0.014
101 kPa, x2 = 0.7296 | – | 0.617 ± 0.017 | 0.508 ± 0.015 | 0.411 ± 0.014
101 kPa, x2 = 0.8167 | – | 0.602 ± 0.016 | 0.502 ± 0.015 | 0.41 ± 0.014
101 kPa, x2 = 0.9076 | – | 0.562 ± 0.016 | 0.481 ± 0.015 | 0.408 ± 0.014

CC[N+](=O)[O-] + CO
viscosity [mPa·s], 101.33 kPa
Conditions | 293.15 K | 303.15 K | 313.15 K
x2 = 0.0501 | 0.657 ± 0.006 | 0.586 ± 0.005 | 0.527 ± 0.005
x2 = 0.0999 | 0.634 ± 0.006 | 0.565 ± 0.005 | 0.508 ± 0.005
x2 = 0.1503 | 0.617 ± 0.006 | 0.549 ± 0.005 | 0.493 ± 0.005
x2 = 0.2 | 0.603 ± 0.005 | 0.536 ± 0.005 | 0.48 ± 0.005
x2 = 0.25 | 0.593 ± 0.005 | 0.526 ± 0.005 | 0.471 ± 0.004
x2 = 0.3 | 0.584 ± 0.005 | 0.517 ± 0.005 | 0.462 ± 0.004
x2 = 0.3501 | 0.576 ± 0.005 | 0.51 ± 0.005 | 0.455 ± 0.004
x2 = 0.4 | 0.57 ± 0.005 | 0.504 ± 0.005 | 0.448 ± 0.004
x2 = 0.45 | 0.564 ± 0.005 | 0.498 ± 0.005 | 0.442 ± 0.004
x2 = 0.5 | 0.559 ± 0.005 | 0.493 ± 0.005 | 0.438 ± 0.004
x2 = 0.55 | 0.556 ± 0.005 | 0.489 ± 0.005 | 0.433 ± 0.004
x2 = 0.6 | 0.553 ± 0.005 | 0.487 ± 0.005 | 0.43 ± 0.004
x2 = 0.65 | 0.552 ± 0.005 | 0.485 ± 0.005 | 0.428 ± 0.004
x2 = 0.6999 | 0.552 ± 0.005 | 0.486 ± 0.005 | 0.428 ± 0.004
x2 = 0.75 | 0.555 ± 0.005 | 0.486 ± 0.005 | 0.427 ± 0.004
x2 = 0.8 | 0.558 ± 0.005 | 0.487 ± 0.005 | 0.428 ± 0.004
x2 = 0.85 | 0.562 ± 0.005 | 0.49 ± 0.005 | 0.43 ± 0.004
x2 = 0.9 | 0.567 ± 0.005 | 0.495 ± 0.005 | 0.434 ± 0.004
x2 = 0.95 | 0.576 ± 0.005 | 0.501 ± 0.005 | 0.437 ± 0.004

CCn1ccnc1 + CO
viscosity [mPa·s], 101 kPa
Conditions | 298.15 K | 308.15 K | 318.15 K
x1 = 0.0461 | 0.654 ± 0.033 | 0.5768 ± 0.029 | 0.5141 ± 0.026
x1 = 0.1003 | 0.7495 ± 0.038 | 0.6547 ± 0.033 | 0.5802 ± 0.029
x1 = 0.2389 | 1.012 ± 0.051 | 0.8673 ± 0.044 | 0.7489 ± 0.038
x1 = 0.3039 | 1.133 ± 0.057 | 0.967 ± 0.049 | 0.8304 ± 0.042
x1 = 0.3938 | 1.285 ± 0.065 | 1.085 ± 0.055 | 0.9324 ± 0.047
x1 = 0.4588 | 1.383 ± 0.07 | 1.163 ± 0.059 | 0.9927 ± 0.05
x1 = 0.5724 | 1.525 ± 0.077 | 1.275 ± 0.065 | 1.085 ± 0.055
x1 = 0.7001 | 1.669 ± 0.084 | 1.388 ± 0.07 | 1.177 ± 0.06
x1 = 0.794 | 1.766 ± 0.089 | 1.467 ± 0.074 | 1.24 ± 0.063
x1 = 0.8988 | 1.861 ± 0.094 | 1.536 ± 0.078 | 1.296 ± 0.066
x1 = 0.9431 | 1.89 ± 0.096 | 1.56 ± 0.079 | 1.316 ± 0.067

Cc1ccncc1 + CO
298.15 K, 101.33 kPa
Conditions | viscosity [mPa·s]
x2 = 0.1671 | 0.8666 ± 0.01
x2 = 0.3035 | 0.8547 ± 0.0096
x2 = 0.4194 | 0.8291 ± 0.0089
x2 = 0.5171 | 0.8161 ± 0.0084
x2 = 0.6328 | 0.7764 ± 0.0076
x2 = 0.7977 | 0.7033 ± 0.0066
x2 = 0.8892 | 0.6526 ± 0.006
x2 = 0.967 | 0.5799 ± 0.0053

c1cc2c3c(cccc3c1)CC2 + CO
viscosity [mPa·s], 101.33 kPa
Conditions | 298.15 K | 303.15 K | 308.15 K | 313.15 K | 318.15 K
x1 = 0.00465 | 0.5715 ± 0.004 | 0.5301 ± 0.0037 | 0.494 ± 0.0035 | 0.4598 ± 0.0032 | 0.436 ± 0.0031
x1 = 0.0072 | – | 0.5362 ± 0.0038 | 0.5036 ± 0.0035 | 0.4714 ± 0.0033 | 0.4405 ± 0.0031

CCCCN + COC(C)=O
303.15 K, 101 kPa
Conditions | viscosity [mPa·s]
x1 = 0.1441 | 0.4159 ± 0.0052
x1 = 0.2526 | 0.4351 ± 0.0054
x1 = 0.35 | 0.4469 ± 0.0056
x1 = 0.454 | 0.4552 ± 0.0057
x1 = 0.5721 | 0.458 ± 0.0057
x1 = 0.686 | 0.4596 ± 0.0057
x1 = 0.7578 | 0.4709 ± 0.0058
x1 = 0.8757 | 0.4985 ± 0.0062
